According to patent US20240182941A1, “XYLOSYLATED STEVIOL GLYCOSIDES AND ENZYMATIC METHODS FOR PRODUCTION” (CARGILL, INCORPORATED, priority 2021, published 2024):

Tested on: SEQ ID NO:1
Test: Glycosylation of Reb F, Reb G and Dulcoside A using SEQ ID NO:1 and activated sugars
Type: biochemical, Oryza sativa Japonica Group
Details: for Rhamnosylation using UDP-rhamnose compared with glucosylation and xylosylation / glucosylation and xylosylation plateauing after: -19C(O)-β-Glc residue; for glucosylation and xylosylation plateauing after: UDP-glucose and UDP-xylose
Method: Bioconversion reaction was carried out in a total of 100 uL sealed vials containing the Tris buffer, 0.1 μmoles of SG acceptor, 0.2 μmoles of activated sugar donor, 1 μmoles of sucrose and 2 ug protein of the enzymes. To each vial, buffer, sucrose, UDP-sugar donor, and SG acceptor were added in that order before finally the enzymes were added. For each SG donor, a control was included to contain the same amounts of sucrose and enzymes without UDP-sugar donors. After hand mixing, the vials were placed in a temperature-controlled shaker set at 30C and 100 rpm in rotating motion for 96 hours (4 days).
After 4 days of reaction, 0.9 mL of 80% acetonitrile was added to each vial and the resulting samples were analyzed in LC/MS. Xylose modification of the -19C(O)-β-Glc residue was confirmed.
The ability of SEQ ID NO:1 to glycosylate the -19C(O)-β-Glc residue of RebF, RebG, and Dulcoside A with different activated sugars used at different concentrations was examined, with the reaction products formed being measured over the course of the reaction.
UDP-glucose, UDP-xylose, and UDP-rhamnose di-sodium salts were used, and the reagents and reaction conditions were as described in Example 1.

C=C1C[C@@]23CC[C@H]4[C@@](C)(CCC[C@@]4(C)C(=O)O[C@@H]4O[C@H](CO)[C@@H](O)[C@H](O)[C@H]4O)[C@@H]2CC[C@]1(O[C@@H]1O[C@H](CO)[C@@H](O)[C@H](O)[C@H]1O[C@@H]1O[C@@H](C)[C@H](O)[C@@H](O)[C@H]1O)C3 [Dulcoside A, dulcoside A]
Rhamnosylation using UDP-rhamnose compared with glucosylation and xylosylation: significantly lower
% Dul A bioconversion (UDP-Glucose, 0 hours): 0%
% Dul A bioconversion (UDP-Glucose, 15 hours): 77.162%
% Dul A bioconversion (UDP-Glucose, 48 hours): 75.215%
% Dul A bioconversion (UDP-Glucose, 96 hours): 73.71%
% Dul A bioconversion (UDP-Rhamnose, 0 hours): 0%
% Dul A bioconversion (UDP-Rhamnose, 15 hours): 17.384%
% Dul A bioconversion (UDP-Rhamnose, 48 hours): 27.427%
% Dul A bioconversion (UDP-Rhamnose, 96 hours): 32.608%
% Dul A bioconversion (UDP-Xylose, 0 hours): 0%
% Dul A bioconversion (UDP-Xylose, 15 hours): 79.34%
% Dul A bioconversion (UDP-Xylose, 48 hours): 79.919%
% Dul A bioconversion (UDP-Xylose, 96 hours): 79.349%
glucosylation and xylosylation plateauing after: 20 min

C=C1C[C@@]23CC[C@H]4[C@@](C)(CCC[C@@]4(C)C(=O)O[C@@H]4O[C@H](CO)[C@@H](O)[C@H](O)[C@H]4O)[C@@H]2CC[C@]1(O[C@@H]1O[C@H](CO)[C@@H](O)[C@H](O[C@@H]2O[C@H](CO)[C@@H](O)[C@H](O)[C@H]2O)[C@H]1O)C3 [Reb G, rebaudioside G]
Rhamnosylation using UDP-rhamnose compared with glucosylation and xylosylation: significantly lower
% Reb G bioconversion (UDP-Glucose, 0 hours): 0%
% Reb G bioconversion (UDP-Glucose, 15 hours): 87.748%
% Reb G bioconversion (UDP-Glucose, 48 hours): 85.225%
% Reb G bioconversion (UDP-Glucose, 96 hours): 83.427%
% Reb G bioconversion (UDP-Rhamnose, 0 hours): 0%
% Reb G bioconversion (UDP-Rhamnose, 15 hours): 17.055%
% Reb G bioconversion (UDP-Rhamnose, 48 hours): 26.923%
% Reb G bioconversion (UDP-Rhamnose, 96 hours): 31.347%
% Reb G bioconversion (UDP-Xylose, 0 hours): 0%
% Reb G bioconversion (UDP-Xylose, 15 hours): 78.904%
% Reb G bioconversion (UDP-Xylose, 48 hours): 78.311%
% Reb G bioconversion (UDP-Xylose, 96 hours): 77.211%
glucosylation and xylosylation plateauing after: 20 min

rebaudioside F [Reb F]
Rhamnosylation using UDP-rhamnose compared with glucosylation and xylosylation: significantly lower
% Reb F bioconversion (UDP-Glucose, 0 hours): 0%
% Reb F bioconversion (UDP-Glucose, 15 hours): 85.9%
% Reb F bioconversion (UDP-Glucose, 48 hours): 85.96%
% Reb F bioconversion (UDP-Glucose, 96 hours): 84.4%
% Reb F bioconversion (UDP-Rhamnose, 0 hours): 0%
% Reb F bioconversion (UDP-Rhamnose, 15 hours): 17.5%
% Reb F bioconversion (UDP-Rhamnose, 48 hours): 28.412%
% Reb F bioconversion (UDP-Rhamnose, 96 hours): 33.216%
% Reb F bioconversion (UDP-Xylose, 0 hours): 0%
% Reb F bioconversion (UDP-Xylose, 15 hours): 86.406%
% Reb F bioconversion (UDP-Xylose, 48 hours): 86.2%
% Reb F bioconversion (UDP-Xylose, 96 hours): 84.179%
glucosylation and xylosylation plateauing after: 20 min
